Measured values from paper PMC7714071, “Interaction of amyloid beta with humanin and acetylcholinesterase is modulated by ATP” (FEBS Open Bio, 2020).

How the values were obtained:
[1] = tested on: AChE-Aβ complex (A549 cell-conditioned media); assay: ELISA, AChE found in a complex with Aβ in A549 cell-conditioned media; format: binding, human
Protocol: Human NSCLC cell lines, A549 (ATCC CCL‐185) and H1299 (ATCC CRL‐5803), were purchased from the American Type Culture Collection (ATCC, Manassas, VA, USA). Cells were seeded as we reported earlier in 5 mL HyClone Dulbecco's modified Eagle's medium/nutrient mixture F‐12 (DMEM/F12) (GE Healthcare Life Sciences, Pittsburgh, PA, USA), supplemented with 10% Fetalgro bovine growth serum (FBS; RMBIO, Missoula, MT, USA), 50 U·mL^−1 penicillin, and […] streptomycin (Invitrogen, Life Technologies, Carlsbad, CA, USA) in 25‐cm^2 tissue culture flasks, and allowed to grow overnight in an incubator at 37 °C, 95% humidity, and 5% CO2. The cells were counted after trypan blue staining, with a hemocytometer.
ELISAs were carried out as we previously reported. Nunc MaxiSorp 96‐well flat bottom plate (Thermo Fisher) wells were coated with samples as indicated. The plates were incubated overnight at 4 °C on a shaker to allow binding of the samples to the plate wells. After the incubation, the wells were washed 4× with TBST, filled with 400 µL blocking buffer (110 mM KCl, 5 mM NaHCO3, 5 mM MgCl2, 1 mM EGTA, 0.1 mM CaCl2, 20 mM HEPES, 1% BSA, pH 7.4), and incubated with shaking overnight at 4 °C. […] TBST was then used to wash the wells 4× before proceeding in one of two ways: (a) biotinylated samples were analyzed by adding 100 µL streptavidin–HRP conjugate in TBST (1 : 2500 dilution) to the samples followed by incubation for 3 h at RT on a shaker, or (b) samples without biotin were analyzed by adding 100 µL TBST containing the primary antibody as per the manufacturer's recommendation, incubating for 3 h at RT on a shaker, followed by washing the wells 4× with TBST. […] The reaction was stopped with 100 µL 2 M H2SO4 after incubating at RT for 0.5–15 min, resulting in a yellow color change, measured by absorbance at 450 nm. […] Before analysis, the OD from the data was corrected for nonspecific binding by subtracting the mean background absorbance for the negative controls. […] Statistical analysis was determined by the […] […] Data were expressed as the mean ± SD. […]

Aβ cytotoxicity = conditions: cited from earlier work
Description: Almost all types of cells produce amyloid beta (Aβ), a peptide well recognized for its role in the development and progression of different stages of Alzheimer's disease (AD). The Aβ peptide is ~ 4 kDa and derived from the sequential processing of the higher molecular weight amyloid precursor protein by two membrane‐bound endoproteases, β‐ and γ‐secretase. Different C‐terminal Aβ heterogeneity results from processing by γ‐secretase, where Aβ40 represents the most abundant isoform (~ 90%) as compared to Aβ42 (~ 10%). Self‐assembled Aβ40/42 peptides into amyloid fib ... || Soluble oligomers of proteins implicated in different diseases are primarily thought to be the main toxic form as opposed to the larger fibrillar assemblies. Aβ regions containing Tyr and Ser (H6DSGY10 and G25SNKG29) (Fig. 1) along with post‐translational modifications of these regions, have been implicated in misfolding, oligomerization, or fibril formation of Aβ [5, 10, 11, 16, 41]. […] Aβ proteins a ... || Acetylcholinesterase (AChE) is an enzyme known for its role in terminating acetylcholine‐mediated neurotransmission at the synaptic cleft. The majority of the cortical AChE in the Alzheimer's brain is mainly associated with the amyloid core of senile plaques. […]

Aβ42 = conditions: HN and AChE compared; cited from earlier work
Description: Humanin has been previously reported to bind amino acid residues 17–28 of Aβ (Fig. 1). AChE is also known to bind Aβ (1–16) and the Aβ (12–28) region (Fig. 1). Since the binding sites of AChE and HN on Aβ are overlapping, we previously investigated whether HN and AChE can simultaneously bind Aβ [79].

AChE-Aβ interaction = conditions: cited from earlier work
Description: Access to the central domain of Aβ (residues 17–24) flanked by Lys‐16 and Lys‐28, known to be a critical structural element in fibrillar Aβ aggregates, might be regulated by binding of AChE and HN to their overlapping binding sites on Aβ. […] Moreover, we s ...

Row | Compound | decrease in levels of AChE found in a complex with Aβ ([1]; 100 μM ATP, 6E10 or 82E1 on wells, three experiments in triplicate, Fig. 5A) | levels of AChE found in a complex with Aβ ([1]; 1 mM ATP, 6E10 or 82E1 on wells, Fig. 5A) | Aβ detected on anti-AChE wells upon ATP addition ([1]; anti-AChE on wells, Aβ detected by 6E10 or 82E1, Fig. 5B) | effect on Aβ-mediated cytotoxicity (Aβ cytotoxicity) | affinity for Aβ42 (Aβ42) | effect of HN on binding of AChE to Aβ (AChE-Aβ interaction)
1 | Nc1ncnc2c1ncn2[C@@H]1O[C@H](COP(=O)(O)OP(=O)(O)OP(=O)(O)O)[C@@H](O)[C@H]1O [ATP, Adenosine triphosphate] | ~ 2.3 fold | decreased to almost blank levels | comparable decrease in the levels of Aβ | protective | – | –
2 | Humanin [HN] | – | – | – | – | comparable affinities | it is not abolished
